The subject of one assay is phospholipase C (PLC). The following applies: in B-lymphocytes; cited from earlier work.
The test system of a further assay is neutrophils. The note with it: stimulated neutrophils; cited from earlier work.
Assay [1] has as its system test mice (6-8-week-old athymic nu/nu on a BALB/c background). As to the kind of experiment: Quantity of anti-E2 antibody (ELISA) in blood of mice injected with vaccine. In kind it is in vivo. The following applies: when used together with alum; E2 protein antigen. The protocol: 5 μg of E2 protein antigen obtained in Reference Example was dissolved in 150 μl of PBS (pH 7.2), and 7 μg of the peptide of sequence of SEQ ID NO: 1 synthesized using a conventional peptide synthesis method (Houghten, R. A. et al., Nature, 354, 84(1991)) was added thereto together with alum to obtain a vaccine.
The vaccine thus obtained was injected subcutaneously into test mice (6-8-week-old athymic nu/nu on a BALB/c background). After 5 weeks, a booster injection was carried out, and after another 2 weeks, blood samples were taken from the mice.
For comparison, three different vaccine compositions were also tested as above. These comparative controls were: a vaccine containing E2 protein and alum; a vaccine containing E2 protein and the peptide of sequence of SEQ ID NO: 1; and a vaccine containing alum and the peptide of sequence of SEQ ID NO: 1. The peptides used in this Example include the D-Met residue of SEQ ID NO: 1 having CONH2 substituted for the carboxyl group. […]
Thereafter, 80 μl/well of color former (ABSI (Chemicon®)) were added to each of the 96-wells of the plate, and they were incubated at room temperature for 20 minutes. After the reaction, the O.D. of each well was determined at the wavelength of 405 nm with an ELISA reader.
(An ELISA detects its analyte on a solid surface through an enzyme-linked reagent.)

A further assay relates to human neutrophils. The note with it: cited from earlier work.
Assay [2] has as its system monocytes, B-lymphocytes, and neutrophils. The note with it: cited from earlier work.
The test system of assay [3] is specific receptor protein in the cell membrane of the U266 cell line. The following applies: cited from earlier work.
Assay [4] has as its system human B-lymphocyte cell line U266. The note with it: cited from earlier work.

For “Trp Lys Tyr Met Val Met [peptide of SEQ ID NO: 1]”, the “activity of phospholipase C (PLC)” value in the assay with phospholipase C (PLC) is given as “enhances”. In addition, the “production of active oxygen species” value in the assay with neutrophils is on record as “increase”. For the same substance, in assay [1], the “effect of promoting the vaccination efficiency” value was “remarkable synergistic effect”. Further, in the assay on human neutrophils, the chemotaxis result is recorded as “induces chemotaxis”. In assay [2], the “activation of monocytes, B-lymphocytes, and neutrophils” value is listed as “activates”. Further, in assay [3], the “binding with receptor, activation of the cellular signal pathway” value is on record as “binding with a specific receptor protein”. Moreover, in assay [4], the “intracellular calcium [Ca2+]I release” value is “induces”.

Values taken from patent publication US20030091585A1, “Vaccine composition containing a promoter peptide” (priority 2001, published 2003).
